Laboratory results from ChEMBL document CHEMBL1130329, “Coumarin-based inhibitors of HIV integrase” (J Med Chem, 1997).
Several values for one entry are separate records, joined by “and”; a condition that tells them apart may be missing. Equal entries are not always repeated.

Tests used:
[1] = Delta Logarithm of Partition Coefficient value was determined.; settings: octanol/water
[2] = target: T1, Human immunodeficiency virus type 1 integrase (Human immunodeficiency virus 1, UniProt Q7ZJM1); assay: Integration of DNA by HIV -1 integrase
[3] = target: T1, Human immunodeficiency virus type 1 integrase; assay: (§1) Inhibitory activity against 3'-processing of DNA by HIV-1 integrase; assay type: functional
[4] = target: T1, Human immunodeficiency virus type 1 integrase; assay: as §1
[5] = target: T1, Human immunodeficiency virus type 1 integrase; assay: Inhibitory activity against 3'-processing of DNA byHIV-1 integrase; assay type: functional

T1 sequence (Q7ZJM1 whole entry): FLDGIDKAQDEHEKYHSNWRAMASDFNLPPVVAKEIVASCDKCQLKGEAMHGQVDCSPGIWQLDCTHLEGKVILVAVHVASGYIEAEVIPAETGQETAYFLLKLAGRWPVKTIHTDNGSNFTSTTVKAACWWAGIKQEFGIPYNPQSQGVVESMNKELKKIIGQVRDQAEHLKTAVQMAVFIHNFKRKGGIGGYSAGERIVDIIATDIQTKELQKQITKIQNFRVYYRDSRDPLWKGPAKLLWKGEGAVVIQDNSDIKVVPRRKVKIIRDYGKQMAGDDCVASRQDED

| Molecule | delta Log P [1] | IC50 [2] | IC50 [3] | IC50 [4] [µM] | IC50 [5] [µM] |
| --- | --- | --- | --- | --- | --- |
| O=c1c(C(c2ccc(O)cc2)c2c(O)oc3ccccc3c2=O)c(O)oc2ccccc12 | 1.1 | 75 µM and 74 µM | 141 µM and 128 µM and 130 µM |  |  |
| O=c1c(C(c2ccc(/C=C/c3ccccc3)cc2)c2c(O)oc3ccccc3c2=O)c(O)oc2ccccc12 | 4.14 | 3.7 µM and 9.5 µM | 5.5 µM and 9.2 µM and 7 µM |  |  |
| O=c1c(C(c2ccc(C(c3c(O)oc4ccccc4c3=O)c3c(O)oc4ccccc4c3=O)cc2)c2c(O)oc3ccccc3c2=O)c(O)oc2ccccc12 | 2.84 |  | 2 µM |  |  |
| O=c1c(C(c2ccc3ccccc3c2)c2c(O)oc3cc(O)ccc3c2=O)c(O)oc2cc(O)ccc12 |  | 3.55 µM | 4.2 µM |  |  |
| O=c1c(C(c2ccco2)c2c(O)oc3ccccc3c2=O)c(O)oc2ccccc12 | 0.45 | 133 µM and 122 µM | 75 µM and 34 µM and 54 µM |  |  |
| O=c1c(C(c2ccccc2)c2c(O)oc3cc(O)ccc3c2=O)c(O)oc2cc(O)ccc12 |  | 22.2 µM | 17.2 µM |  |  |
| O=c1c(C(c2ccc3c(c2)Cc2ccccc2-3)c2c(O)oc3ccccc3c2=O)c(O)oc2ccccc12 | 3.4 | 9.5 µM and 7.8 µM | 10 µM (2×) and 11 µM |  |  |
| O=c1c(C(c2cccnc2)c2c(O)oc3cc(O)ccc3c2=O)c(O)oc2cc(O)ccc12 |  | 25 µM and 97 µM | 62 µM and 116 µM | 89 |  |
| CN(C)c1ccc(C(c2c(O)oc3ccccc3c2=O)c2c(O)oc3ccccc3c2=O)cc1 | 1.88 | 50 µM and 88 µM | 100 µM and 190 µM |  | 88 |
| O=c1c(Cc2c(O)oc3cc(O)ccc3c2=O)c(O)oc2cc(O)ccc12 |  | 44.9 µM | 46.3 µM |  |  |
| O=c1c(C(c2ccccc2)c2c(O)oc3ccccc3c2=O)c(O)oc2ccccc12 | 1.6 | 38.8 µM | 43.4 µM and 43 µM |  |  |
| O=c1c(C(c2ccc(/C=C/c3ccccc3)cc2)c2c(O)oc3cc(O)ccc3c2=O)c(O)oc2cc(O)ccc12 |  | 1.8 µM |  |  |  |
| O=c1c(C(c2cccc(C(c3c(O)oc4ccccc4c3=O)c3c(O)oc4ccccc4c3=O)c2)c2c(O)oc3ccccc3c2=O)c(O)oc2ccccc12 |  | 1.2 µM and 2 µM | 3 µM and 2.9 µM |  |  |
| O=c1c(C(c2ccc3ccccc3c2)c2c(O)oc3ccccc3c2=O)c(O)oc2ccccc12 | 2.6 | 16 µM and 9 µM | 19 µM and 20 µM (2×) |  |  |
| O=c1c(C(c2ccc(C(c3c(O)oc4cc(O)ccc4c3=O)c3c(O)oc4cc(O)ccc4c3=O)cc2)c2c(O)oc3cc(O)ccc3c2=O)c(O)oc2cc(O)ccc12 |  | 0.33 µM | 0.37 µM |  |  |
| O=c1cc(O)c2ccc(O)cc2o1 |  | 325 µM | 300 µM |  |  |
| O=c1oc2ccccc2c(O)c1C1c2ccccc2Oc2c1c(=O)oc1ccccc21 (centres undefined) |  | 122 µM and 163 µM | 121 µM and 127 µM |  |  |

| Molecule | delta Log P [1] | IC50 [2] | IC50 [3] | IC50 [4] [µM] | IC50 [5] [µM] |
| --- | --- | --- | --- | --- | --- |
| COc1cc(C(c2c(O)c3ccccc3oc2=O)c2c(O)c3ccccc3oc2=O)ccc1O | 1.05 | 76 µM and 108 µM | 198 µM and 177 µM and 190 µM |  |  |
| O=c1c(Cc2ccccc2Cc2c(O)oc3ccccc3c2=O)c(O)oc2ccccc12 |  | 20.5 µM and 33.2 µM | 46 µM and 45 µM |  |  |
| O=c1c(C(c2ccc(-c3ccccc3)cc2)c2c(O)oc3ccccc3c2=O)c(O)oc2ccccc12 | 3.33 | 13 µM and 28 µM | 14 µM and 16 µM and 15 µM |  |  |
| O=c1c(C(c2cnc3ccccc3c2)c2c(O)oc3ccccc3c2=O)c(O)oc2ccccc12 | 1.6 | 23 µM and 14 µM | 40 µM and 29 µM and 35 µM |  |  |
| O=c1c(C(c2ccc(OCc3ccccc3)cc2)c2c(O)oc3ccccc3c2=O)c(O)oc2ccccc12 | 3.06 | 14 µM and 24 µM | 19 µM and 8.5 µM and 20 µM |  |  |
| O=c1c(C(c2ccc([N+](=O)[O-])cc2)c2c(O)oc3ccccc3c2=O)c(O)oc2ccccc12 | 1.37 | 12 µM and 24 µM | 58 µM and 54 µM |  | 50 |
| O=c1c(C(c2cccs2)c2c(O)oc3ccccc3c2=O)c(O)oc2ccccc12 | 0.86 | 148 µM and 149 µM | 100 µM and 105 µM |  | 110 |
| O=C(O)c1ccc(C(c2c(O)oc3ccccc3c2=O)c2c(O)oc3ccccc3c2=O)cc1 |  | 54 µM and 49 µM | 66 µM and 48 µM |  |  |
| O=c1oc2ccccc2c(O)c1C1c2c(c3ccccc3oc2=O)Oc2c1c(=O)oc1ccccc21 |  | 22.5 µM | 35.7 µM |  |  |
| O=c1c(Cc2ccc(Cc3c(O)oc4ccccc4c3=O)cc2)c(O)oc2ccccc12 |  | 69.2 µM | 80.6 µM |  |  |
| O=c1c(Cc2cccc(Cc3c(O)oc4ccccc4c3=O)c2)c(O)oc2ccccc12 |  | 11.1 µM and 27.5 µM | 34 µM and 40 µM |  |  |
| O=c1c(C(c2ccccn2)c2c(O)oc3cc(O)ccc3c2=O)c(O)oc2cc(O)ccc12 |  | 49 µM and 70 µM | 94 µM and 84 µM | 81 |  |
| O=c1c(C(c2cc(OCc3ccccc3)cc(OCc3ccccc3)c2)c2c(O)oc3ccccc3c2=O)c(O)oc2ccccc12 | 5.15 | 12 µM and 3.7 µM | 8 µM and 11 µM and 10 µM |  |  |
| 3,3'-(Ferrocenomethylene)bis[4-hydroxycoumarin] |  | 7 µM and 5 µM | 11 µM and 3.6 µM |  |  |
| O=c1cc(O)c2ccccc2o1 [4-HYDROXYCOUMARINS] |  | > 100 µM | > 100 µM |  |  |
| O=c1oc2ccccc2c(O)c1Cc1c(O)c2ccccc2oc1=O [DICUMAROL] |  | > 100 µM | > 300 µM |  |  |
